Assay type in all cases: cell-based
The test system of assay [1] is Chikungunya virus (CHIKV). The assay is described as follows: microbe, parasite or virus in culture. The following applies: Chikungunya virus, Vero, 48 h, read-out: Percent viral inhibition CHKV.
A further assay concerns Marburg virus (MARV). The assay is described as follows: organism not typed. The following applies: Vero, 72 h, read-out: Percent viral inhibition MARV.
The next assay relates to dengue virus (DENV). The assay is described as follows: microbe, parasite or virus in culture. The settings on record: Dengue virus, Vero, 120 h, read-out: Percent viral inhibition DENY.

The structures appear in SMILES notation. Counter-ions that a name gives are not always drawn.

Turning to `CNC(=O)CN1CCN(Cc2cc(Oc3ccc(N4CCNCC4)nc3)nc(-c3cc(Cl)cc(Cl)c3)c2)CC1` [Example 1, 2-(4-((2-(3,5-dichlorophenyl)-6-((6-(piperazin-1-yl)pyridin-3-yl)oxy)pyridin-4-yl)methyl)piperazin-1-yl)-N-methylacetamide], the inhibition at 1 µM in assay [1] is 6.99%; in the assay on Marburg virus (MARV) it was 0%; in the assay on dengue virus (DENV), 0%.
With `CC(=O)NCC1(O)CCN(Cc2cc(Oc3ccc(N4CCNCC4)nc3)nc(-c3cc(Cl)cc(Cl)c3)c2)CC1` [Example 2, N-((1-((2-(3,5-dichlorophenyl)-6-((6-(piperazin-1-yl)pyridin-3-yl)oxy)pyridin-4-yl)methyl)-4-hydroxy-piperidin-4-yl)methyl)acetamide], the inhibition at 1 µM in assay [1] amounted to 33.8%; with Marburg virus (MARV), 60.4%; in the assay on dengue virus (DENV) it was 34.3%.
For the compound `O=C(O)CC1CCN(Cc2cc(Oc3ccc(N4CCNCC4)nc3)nc(-c3cc(Cl)cc(Cl)c3)c2)CC1` [Example 4, 2-(1-((2-(3,5-dichlorophenyl)-6-((6-(piperazin-1-yl)pyridin-3-yl)oxy)pyridin-4-yl)methyl)piperidin-4-yl) acetic acid], the inhibition at 1 µM in assay [1] worked out at 18.4%; with Marburg virus (MARV), 70.8%; with dengue virus (DENV) it was 16.6%.
On to `COC(=O)NCC1(O)CCN(Cc2cc(Oc3ccc(N4CCNCC4)nc3)nc(-c3cc(Cl)cc(Cl)c3)c2)CC1` [Example 6, methyl ((1-((2-(3,5-dichlorophenyl)-6-((6-(piperazin-1-yl)pyridin-3-yl)oxy)pyridin-4-yl)methyl)-4-hydroxypiperidin-4-yl)methyl)carbamate], for which the inhibition at 1 µM (in assay [1]; in the assay on Marburg virus (MARV); with dengue virus (DENV)) was 0% each time.
For `O=S(=O)(O)CCC1CCN(Cc2cc(Oc3ccc(N4CCNCC4)nc3)nc(-c3cc(Cl)cc(Cl)c3)c2)CC1` [Example 7, 2-(1-((2-(3,5-dichlorophenyl)-6-((6-(piperazin-1-yl)pyridin-3-yl)oxy)pyridin-4-yl)methyl)piperidin-4-yl) ethanesulfonic acid], the inhibition at 1 µM in assay [1] is 9.36%; in the assay on Marburg virus (MARV), 51.9%; in the assay with dengue virus (DENV), 12.9%.
On to `O=S(=O)(O)CC1CCN(Cc2cc(Oc3ccc(N4CCNCC4)nc3)nc(-c3cc(Cl)cc(Cl)c3)c2)CC1` [Example 8, (1-((2-(3,5-dichlorophenyl)-6-((6-(piperazin-1-yl)pyridin-3-yl)oxy)pyridin-4-yl)methyl)piperidin-4-yl)methanesulfonic acid], for which the inhibition at 1 µM in assay [1] came out at 1.77%; in the assay on Marburg virus (MARV) it was 10.9%; in the assay with dengue virus (DENV), 14.7%.
For `CC(=O)NCC1CCN(Cc2cc(Oc3ccc(N4CCN(CC(=O)O)CC4)nc3)nc(-c3cc(Cl)cc(Cl)c3)c2)CC1` [Example 10], the inhibition at 1 µM was 13.1% in assay [1], 34.8% in the assay on Marburg virus (MARV) and 8.5% in the assay with dengue virus (DENV).
Regarding `CC(=O)NCC1CCN(Cc2cc(Oc3ccc(N4CCN(CCC(=O)O)CC4)nc3)nc(-c3cc(Cl)cc(Cl)c3)c2)CC1` [Example 11, 3-(4-(5-((4-((4-(Acetamidomethyl)piperidin-1-yl)methyl)-6-(3,5-dichlorophenyl)pyridin-2-yl)oxy)pyridin-2-yl)piperazin-1-yl)propanoic acid, 4 hydrochloride], the values for the inhibition at 1 µM (in assay [1]; in the assay with Marburg virus (MARV); in the assay on dengue virus (DENV)) were 17.9%, 41.6% and 30.2%, respectively.
Regarding `CC(=O)NCC1CCN(Cc2cc(Oc3ccc(N4CCN(CCS(C)(=O)=O)CC4)nc3)nc(-c3cc(Cl)cc(Cl)c3)c2)CC1` [Example 12, N-((1-((2-(3,5-dischlorophenyl)-6-((6-(4-(2-(methylsulfonyl)ethyl)piperazin-1-yl)pyridin-3-yl)oxy)pyridin-4-yl)methyl)piperidin-4-yl)methyl)acetamide], the figures for the inhibition at 1 µM (in assay [1]; with Marburg virus (MARV); with dengue virus (DENV)) were 24.7%, 44.5% and 58.3%, respectively.
As to `CC(=O)NCC1CCN(Cc2cc(Oc3ccc(N4CCN(CCC(N)=O)CC4)nc3)nc(-c3cc(Cl)cc(Cl)c3)c2)CC1` [Example 13, 3-(4-(5-((4-((4-(acetamidomethyl)piperidin-1-yl)methyl)-6-(3,5-dichlorophenyl)pyridin-2-yl)oxy)pyridin-2-yl)piperazin-1-yl)propanamide], the inhibition at 1 µM came out at 15.9% in assay [1], 25.4% in the assay with Marburg virus (MARV) and 26.5% with dengue virus (DENV).
In the case of `CC(=O)NCC1CCN(Cc2cc(Oc3ccc(N4CCN(CCc5nnn[nH]5)CC4)nc3)nc(-c3cc(Cl)cc(Cl)c3)c2)CC1` [Example 14], the inhibition at 1 µM in assay [1] worked out at 3.02%; with Marburg virus (MARV) it was 17.3%; with dengue virus (DENV), 0%.
`CC(=O)NCC1CCN(Cc2cc(Oc3ccc(N4CCN(C(C)CCS(C)(=O)=O)CC4)nc3)nc(-c3cc(Cl)cc(Cl)c3)c2)CC1` (stereo not drawn) [Example 16]: the inhibition at 1 µM in assay [1] amounted to 4.14%; with Marburg virus (MARV) it was 28.6%; in the assay with dengue virus (DENV), 41.7%.
As to `CNC(=O)NCC1CCN(Cc2cc(Oc3cnc(N4CCN(CCC(C)[S+](C)[O-])CC4)nc3)nc(-c3cc(Cl)cc(Cl)c3)c2)CC1` (stereo not drawn) [Example 17, 1-((1-((2-(3,5-chlorophenyl)-6-((2-(4-(3-(methylsulfinyl)butyl)piperazin-1-yl)pyrimidin-5-yl)oxy)pyridin-4-yl)methyl)piperidin-4-yl)methyl)-3-methylurea], the inhibition at 1 µM in assay [1] is 7.16%; in the assay on Marburg virus (MARV), 52.9%; with dengue virus (DENV) it was 57.4%.
As for `CC(=O)NCC1CCN(Cc2cc(Oc3cnc(N4CCN(C(C)CCS(C)(=O)=O)CC4)nc3)nc(-c3cc(Cl)cc(Cl)c3)c2)CC1` (stereo not drawn) [Example 19, N-((1-((2-(3,5-dichlorophenyl)-6-((2-(4-(4-(methylsulfonyl)butan-2-yl)piperazin-1-yl)pyrimidin-5-yl)oxy)pyridin-4-yl)methyl)piperidin-4-yl)methyl)acetamide], the inhibition at 1 µM in assay [1] came to 21.6%; in the assay on Marburg virus (MARV), 79.8%; with dengue virus (DENV), 35.5%.
As to `CC(CO)N1CCN(c2ncc(Oc3cc(CN4CCC(CC(=O)O)CC4)cc(-c4cc(Cl)cc(Cl)c4)n3)cn2)CC1` (stereo not drawn) [Example 21, 2-(1-((2-(3,5-dichlorophenyl)-6-((2-(4-(1-hydroxypropan-2-yl)piperazin-1-yl)pyrimidin-5-yl)oxy)pyridin-4-yl)methyl)piperidin-4-yl)acetic acid], the inhibition at 1 µM was found to be 26.2% in assay [1], 46.4% with Marburg virus (MARV) and 8.18% in the assay with dengue virus (DENV).
On to `O=C(O)CC1CCN(Cc2cc(Oc3cnc(N4CCN(C5CC(O)C5)CC4)nc3)nc(-c3cc(Cl)cc(Cl)c3)c2)CC1` (stereo not drawn) [Example 22, 2-(1-((2-(3,5-dichlorophenyl)-6-((2-(4-(3-hydroxycyclobutyl)piperazin-1-yl)pyrimidin-5-yl)oxy)pyridin-4-yl)methyl)piperidin-4-yl)acetic acid], for which the figures for the inhibition at 1 µM (in assay [1]; in the assay on Marburg virus (MARV); in the assay on dengue virus (DENV)) were 26.8%, 52.5% and 64.4%, respectively.
As for `O=C(O)CC1CCN(Cc2cc(Oc3cnc(N4CCN(C(CO)CO)CC4)nc3)nc(-c3cc(Cl)cc(Cl)c3)c2)CC1` [Example 23, 2-(1-((2-(3,5-dichlorophenyl)-6-((2-(4-(1,3-dihydroxypropan-2-yl)piperazin-1-yl)pyrimidin-5-yl)oxy)pyridin-4-yl)methyl)piperidin-4-yl)acetic acid], the inhibition at 1 µM in assay [1] amounted to 21.6%; in the assay with Marburg virus (MARV), 52.5%; with dengue virus (DENV) it was 11%.
Consider `C[C@]1(O)C[C@@H](N2CCN(c3ncc(Oc4cc(CN5CCC(CC(=O)O)CC5)cc(-c5cc(Cl)cc(Cl)c5)n4)cn3)CC2)C1` [Example 24, 2-(1-((2-(3,5-dichlorophenyl)-6-((2-(4-((1s,3s)-3-hydroxy-3-methylcyclobutyl)piperazin-1-yl)pyrimidin-5-yl)oxy)pyridin-4-yl)methyl)piperidin-4-yl)acetic acid], for which the values for the inhibition at 1 µM (in assay [1]; in the assay on Marburg virus (MARV); in the assay with dengue virus (DENV)) were 34.6%, 63.1% and 25.8%, respectively.
Consider `C[C@]1(O)C[C@H](N2CCN(c3ncc(Oc4cc(CN5CCC(CC(=O)O)CC5)cc(-c5cc(Cl)cc(Cl)c5)n4)cn3)CC2)C1` [Example 25, 2-(1-((2-(3,5-dichlorophenyl)-6-((2-(4-((1r,3r)-3-hydroxy-3-methylcyclobutyl)piperazin-1-yl)pyrimidin-5-yl)oxy)pyridin-4-yl)methyl)piperidin-4-yl)acetic acid], for which the inhibition at 1 µM in assay [1] was 26.3%; in the assay with Marburg virus (MARV), 65.5%; with dengue virus (DENV), 13.7%.
The matching figures for `CC(=O)NCC1CCN(Cc2cc(Oc3ccc(N4CCN([C@H]5C[C@@H](NS(C)(=O)=O)C5)CC4)nc3)nc(-c3cc(Cl)cc(Cl)c3)c2)CC1` [Example 27, N-((1-((2-(3,5-dichlorophenyl)-6-((6-(4-((cis)-3-(methylsulfonamido)cyclobutyl)piperazin-1-yl)pyridin-3-yl)oxy)pyridin-4-yl)methyl)piperidin-4-yl)methyl)acetamide]: 26.8%, 50.3% and 51.1%.
On to `CC(=O)NCC1CCN(Cc2cc(Oc3ccc(N4CCN(CCP(=O)(O)O)CC4)nc3)nc(-c3cc(Cl)cc(Cl)c3)c2)CC1` [Example 30, (2-(4-(5-((4-((4-(acetamidomethyl)piperidin-1-yl)methyl)-6-(3,5-dichlorophenyl)pyridin-2-yl)oxy)pyridin-2-yl)piperazin-1-yl)ethyl)phosphonic acid], for which the inhibition at 1 µM in assay [1] came out at 10.1%; with Marburg virus (MARV), 15.5%; in the assay with dengue virus (DENV), 44.3%.
With `CC(=O)NCC1CCN(Cc2cc(Oc3ccc(N4CCN(CCOC(N)=O)CC4)nc3)nc(-c3cc(Cl)cc(Cl)c3)c2)CC1` [Example 31, 2-(4-(5-((4-((4-(acetamidomethyl)piperidin-1-yl)methyl)-6-(3,5-dichlorophenyl)pyridin-2-yl)oxy)pyridin-2-yl)piperazin-1-yl)ethylcarbamate], the inhibition at 1 µM worked out at 18.7% in assay [1], 61.4% in the assay on Marburg virus (MARV) and 38.9% in the assay on dengue virus (DENV).

For orientation: inhibition means the relative decrease from the control value, in per cent.

The values are drawn from patent publication US20230011571A1, “SMALL MOLECULE FURIN INHIBITORS FOR TREATING INFECTIOUS DISEASES” (BP Asset V, Inc., priority 2019, published 2023).
